One test addresses T1, EP1 (Homo sapiens, UniProt P34995).
T1 construct: expressed in transfected cells; host or cells: CHO (EP1-CHO)
T1 sequence (P34995 1-402): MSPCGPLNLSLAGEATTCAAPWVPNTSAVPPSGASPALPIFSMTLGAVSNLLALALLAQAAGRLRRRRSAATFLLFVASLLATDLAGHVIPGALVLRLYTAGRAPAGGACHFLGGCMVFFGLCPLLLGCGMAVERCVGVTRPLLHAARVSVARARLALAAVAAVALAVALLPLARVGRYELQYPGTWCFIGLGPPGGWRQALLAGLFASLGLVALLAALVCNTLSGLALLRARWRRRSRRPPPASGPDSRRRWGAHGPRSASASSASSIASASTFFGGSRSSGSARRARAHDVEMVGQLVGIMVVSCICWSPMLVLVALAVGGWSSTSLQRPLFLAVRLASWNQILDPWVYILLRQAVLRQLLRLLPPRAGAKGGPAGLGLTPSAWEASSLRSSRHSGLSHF
Put plainly: agonist activity on human EP1 receptor (intracellular calcium concentration, EP1-CHO cells). It is filed as cell-based. As to the method: Using CHO cells (EP1-CHO, EP2-CHO, EP3-Chem1, EP4-CHO and IP-CHO) on which various human prostanoid receptors were forcibly expressed, the agonist activity of the test compound on the various prostanoid receptors was examined using the intracellular calcium concentration for EP1 and EP3, and the intracellular cyclic AMP (hereinafter, abbreviated as cAMP) production amount for EP2, EP4 and IP as indices.
The test compound and control substances (PGE2 and iloprost) were dissolved in dimethyl sulfoxide (DMSO) to prepare a 10 mmol/L solution. The prepared 10 mmol/L solution was thawed at the time of use, serially diluted using DMSO, and diluted with a buffer solution 1 for measurement (Hank's balanced salt solution (Thermofischer scientific) containing 1 w/v% human serum albumin (Sigma), 2 µmol/L indomethacin (Sigma), 2.5 mmol/L probenecid, and 10 mmol/L HEPES-NaOH (pH7.4)) or a buffer solution 2 for measurement (D-PBS (Nacalai Tesque) containing 0.1 w/v% human serum albumin, 2 µmol/L diclofenac (Sigma), and 1 mmol/L 3-isobutyl-1-methylxanthine (Sigma)) to perform experiments.
The intracellular calcium concentration was measured using Calcium 6 Assay Kit (Molecular Devices). On the day before the measurement, EP1-CHO and EP3-Chem 1 were obtained by thawing the frozen cells, suspended using Ham's F-12 medium (Thermofischer scientific) containing inactivated (56°C, 30 min) 9.8 vol% FBS (Thermofischer scientific) and penicillin-streptomycin (Nacalai Tesque), seeded into a 96 well UV plate to 1.0×10^5 cells per well, and static cultured at 37°C in the presence of 5%CO2. On the day of the measurement, the medium was removed, followed by addition of 120 µL of the Calcium indication solution dissolved in the buffer solution 1 for measurement and incubation at room temperature under light-shielding for about 1 hour. After 1 hour incubation, the 96 well UV plates were set in a fluorescence spectrophotometer (FDSS-7000, Hamamatsu Photonics) to measure the intracellular calcium concentration. Thirty microliters of the buffer solution 1 for measurement containing various concentrations of agonists were added, and the mixture was reacted. The intracellular calcium concentration was measured by irradiating the cells with 480 nm excitation light and measuring the fluorescence intensity at 540 nm.

The test system of test [1] is rat renal ischemia reperfusion (IR) model. Put plainly: in vivo drug efficacy in rat renal ischemia reperfusion (IR) model. More on the design: species or system Crl : CD (SD) rats. How it is done:
The effect of the present compound on renal IR damage was evaluated using male rats.
Male Crl : CD (SD) rats aged 3 or 4 weeks were purchased from Charles River Laboratories Japan, and subjected to experiments. Animals were fed ad libitum with FR-2 (Funabashi Farm) at the time of arrival and with solid feed CE-2 (CLEA Japan) for one week before single kidney removal, and watered ad libitum.
After acclimation breeding, the right kidney was removed about 7 days before renal IR treatment. Specifically, the rats were allowed to inhale isoflurane (Mylan) for anesthesia, and administered buprenorphine (Otsuka Pharmaceutical) as an analgesic at 0.01 mg/kg. The right back was incised, the right kidney was removed, and then the incision was sutured.
Renal IR treatment was performed about 7 days after single kidney removal. Specifically, rats were anesthetized by intraperitoneal administration of sodium pentobarbital (Tokyo Chemical Industry) at a dose of 50 mg/kg, and administered buprenorphine as an analgesic at 0.01 mg/kg. The left abdomen was incised, and the renal artery and vein was sandwiched with a clamp (Natsume Seisakusho) to cause ischemia for 35 minutes. During ischemia, the rats were allowed to lie on a heat-retaining plate set at 38°C, and after 35 minutes, the clamp was removed for reperfusion. After visually confirming that blood flow to the kidney was recovered, the incision was sutured. The sham group was a sham-operated group in which neither ischemia nor reperfusion treatment was performed.
Animals were distributed on the day before renal IR treatment such that differences in the mean of the body weight in each group were not biased, and assigned animal numbers.
The compound of Example 7 (test substance) and physiological saline (Otsuka Pharmaceutical) as a vehicle were subcutaneously administered at 5 mL/kg using an injection needle 5 minutes before renal IR treatment. Saline was administered to the sham group in the same test. The administration dose is described in Table 16.
Specifically, the rats were allowed to inhale isoflurane for anesthesia on the day before renal IR treatment, and administered buprenorphine as an analgesic at 0.01 mg/kg. […] The incision was bonded with Dermabond Advanced (Johnson & Johnson). A pump containing a vehicle was also embedded in the sham group in the same test. The administration dose is described in Table 16.
After renal IR treatment, blood was collected through the tail vein on Day1, Day2, and Day3 to obtain serum. In addition, after renal IR treatment, rats were euthanized by exsanguination through the abdominal aorta under isoflurane anesthesia on Day3.
The respective concentrations of serum creatinine (sCre) and blood urea nitrogen (BUN) were measured using an automatic analyzer 7180 (Hitachi High-Tech).

The mark [2] stands for this setting: IR 0.1 mg/kg subcutaneous 5 minutes before renal IR treatment, day 1.
Where [3] appears, read: IR 0.1 mg/kg subcutaneous 5 minutes before renal IR treatment, day 2.
Setting [4] is: IR 0.1 mg/kg subcutaneous 5 minutes before renal IR treatment, day 3.
The mark [5] stands for this setting: IR 1.0 mg/kg subcutaneous 5 minutes before renal IR treatment, day 1.
[6] abbreviates: IR 1.0 mg/kg subcutaneous 5 minutes before renal IR treatment, day 2.
[7] abbreviates: IR 1.0 mg/kg subcutaneous 5 minutes before renal IR treatment, day 3.
[8] abbreviates: IR 1.0 µg/kg/min, subcutaneous osmotic pump, day 1.
Where [9] appears, read: IR 1.0 µg/kg/min, subcutaneous osmotic pump, day 2.
Setting [10] is: IR 3.0 µg/kg/min, subcutaneous osmotic pump, day 1.
[11] abbreviates: IR 3.0 µg/kg/min, subcutaneous osmotic pump, day 2.

For the compound `Cc1c(C(=O)O)ccc2c1O[C@H]1C[C@@H](O)[C@H](/C=C/CC(C)(O)CCC(C)C)[C@H]1CC2` (stereo partly drawn) [Example 13, (1R,2R,3aS,10aR)-2-hydroxy-1-[(1E,4ξ)-4-hydroxy-4,7-dimethyl-1-octen-1-yl]-5-methyl-2,3,3a,9,10,10a-hexahydro-1H-benzo[b]cyclopenta[f]oxepine-6-carboxylic acid], the EC50 (usually the concentration needed to bring the measured effect to its halfway point) at EP1 was > 10 µM.
For `CCCC[C@H](CC)C(O)/C=C/[C@H]1CC[C@@H]2Oc3c(ccc(C(=O)O)c3Cl)CC[C@@H]21` (stereo partly drawn) [Example 26-20, (1R,3aS,10aR)-5-chloro-1-[(1E,3ξ,4S)-4-ethyl-3-hydroxy-1-octen-1-yl]-2,3,3a,9,10,10a-hexahydro-1H-benzo[b]cyclopenta[f]oxepine-6-carboxylic acid], the EC50 at EP1 was > 10 µM.
Turning to `O=C(O)c1ccc2c(c1)O[C@H]1CC[C@H](/C=C/C(O)C3(c4ccccc4F)CCC3)[C@H]1CC2` (stereo partly drawn) [Example 26-9, (1R,3aS,10aR)-1-{(1E,3ξ)-3-[1-(2-fluorophenyl)cyclobutyl]-3-hydroxy-1-propen-1-yl}-2,3,3a,9,10,10a-hexahydro-1H-benzo[b]cyclopenta[f]oxepine-6-carboxylic acid], at EP1, the EC50 was > 10 µM.
`O=C(O)c1ccc2c(c1F)O[C@H]1C[C@@H](Cl)[C@H](/C=C/C(O)C3(c4ccccc4)CCO3)[C@H]1CC2` (stereo partly drawn) [Example 32-6, (1R,2R,3aS,10aR)-2-chloro-5-fluoro-1-{(1E,3ξ)-3-hydroxy-3-[(2ξ)-2-phenyl-2-oxetanyl]-1-propen-1-yl}-2,3,3a,9,10,10a-hexahydro-1H-benzo[b]cyclopenta[f]oxepine-6-carboxylic acid]: the EC50 on EP1 is > 10 µM.
Take `C[C@@H](c1ccc(F)cc1F)[C@H](O)/C=C/[C@@H]1[C@H]2CCc3ccc(C(=O)O)c(F)c3O[C@H]2C[C@H]1O` [Example 1, (1R,2R,3aS,10aR)-1-[(1E,3R,4S)-4-(2,4-difluorophenyl)-3-hydroxy-1-penten-1-yl]-5-fluoro-2-hydroxy-2,3,3a,9,10,10a-hexahydro-1H-benzo[b]cyclopenta[f]oxepine-6-carboxylic acid]: at EP1, the EC50 was found to be 3.5 µM.
On to `O=C(O)c1ccc2c(c1F)O[C@H]1C[C@@H](F)[C@H](/C=C/C(O)C3(c4ccccc4)COC3)[C@H]1CC2` (stereo partly drawn) [Example 28-2, (1R,2R,3aS,10aR)-2,5-difluoro-1-[(1E,3ξ)-3-hydroxy-3-(3-phenyl-3-oxetanyl)-1-propen-1-yl]-2,3,3a,9,10,10a-hexahydro-1H-benzo[b]cyclopenta[f]oxepine-6-carboxylic acid], for which the EC50 on EP1 is > 10 µM.
In the case of `O=C(O)c1ccc2c(c1Cl)O[C@H]1CC[C@H](/C=C/C(O)C3(c4ccccc4)COC3)[C@H]1CC2` (stereo partly drawn) [Example 26-21, (1R,3aS,10aR)-5-chloro-1-[(1E,3ξ)-3-hydroxy-3-(3-phenyl-3-oxetanyl)-1-propen-1-yl]-2,3,3a,9,10,10a-hexahydro-1H-benzo[b]cyclopenta[f]oxepine-6-carboxylic acid], the EC50 at EP1 is > 10 µM.
As for `CC(c1ccccc1F)C(O)/C=C/[C@@H]1[C@H]2CCc3ccc(C(=O)O)c(F)c3O[C@H]2C[C@H]1O` (stereo partly drawn) [Example 3, (1R,2R,3aS,10aR)-5-fluoro-1-[(1E)-4-(2-fluorophenyl)-3-hydroxy-1-penten-1-yl]-2-hydroxy-2,3,3a,9,10,10a-hexahydro-1H-benzo[b]cyclopenta[f]oxepine-6-carboxylic acid], the EC50 on EP1 is 7.3 µM.
As to `O=C(O)c1ccc2c(c1Cl)O[C@H]1C[C@@H](O)[C@H](/C=C/C(O)C(F)(F)c3c(F)cccc3F)[C@H]1CC2` (stereo partly drawn) [Example 8, (1R,2R,3aS,10aR)-5-chloro-1-[(1E,3ξ)-4-(2,6-difluorophenyl)-4,4-difluoro-3-hydroxy-1-buten-1-yl]-2-hydroxy-2,3,3a,9,10,10a-hexahydro-1H-benzo[b]cyclopenta[f]oxepine-6-carboxylic acid], at EP1, the concentration giving a half-maximal response (EC50) was determined as 2.7 µM.
Take `O=C(O)c1ccc2c(c1)O[C@H]1C[C@@H](O)[C@H](/C=C/[C@@H](O)C3(c4ccccc4)CC3)[C@H]1CC2` [Example 7, (1R,2R,3aS,10aR)-2-hydroxy-1-[(1E,3R)-3-hydroxy-3-(1-phenylcyclopropyl)-1-propen-1-yl]-2,3,3a,9,10,10a-hexahydro-1H-benzo[b]cyclopenta[f]oxepine-6-carboxylic acid]: the “blood urea nitrogen (BUN) concentration mean” value in test [1] (setting [2]) stood at 74.6; in test [1] (setting [3]), 58.7; in test [1] (setting [4]), 46.3; in test [1] (setting [5]), 73.6; in test [1] (setting [6]), 53.1; in test [1] (setting [7]) it was 39.7. Besides, the “serum creatinine (sCre) concentration mean” value was found to be 1.08 in test [1] (setting [2]); 0.72 in test [1] (setting [3]); 0.52 in test [1] (setting [4]); 0.99 in test [1] (setting [5]); 0.62 in test [1] (setting [6]); 0.44 in test [1] (setting [7]).
For `Cc1ccccc1C1(C(O)/C=C/[C@@H]2[C@H]3CCc4ccc(C(=O)O)c(F)c4O[C@H]3C[C@H]2O)CC1` (stereo partly drawn) [Example 5-2, (1R,2R,3aS,10aR)-5-fluoro-2-hydroxy-1-{(1E,3ξ)-3-hydroxy-3-[1-(2-methylphenyl)cyclopropyl]-1-propen-1-yl}-2,3,3a,9,10,10a-hexahydro-1H-benzo[b]cyclopenta[f]oxepine-6-carboxylic acid], the “blood urea nitrogen (BUN) concentration mean” value in test [1] (setting [8]) stood at 75.5; in test [1] (setting [9]), 65.3; in test [1] (setting [10]), 63.4; in test [1] (setting [11]), 54.9. In addition, the “serum creatinine (sCre) concentration mean” value in test [1] (setting [8]) is reported as 0.91; in test [1] (setting [9]) it was 0.62; in test [1] (setting [10]), 0.79; in test [1] (setting [11]) it was 0.50.

These data come from patent EP4682141A1, “TRICYCLIC COMPOUND” (ONO Pharmaceutical Co., Ltd., priority 2023, dated 2024).
